Test results taken from ChEMBL document CHEMBL3091431, “Aminopyridyl/Pyrazinyl Spiro[indoline-3,4'-piperidine]-2-ones As Highly Selective and Efficacious c-Met/ALK Inhibitors” (ACS Med Chem Lett, 2013).

Tests used:
[1] = molecular target: Hepatocyte growth factor receptor (Homo sapiens, UniProt P08581); experiment: Inhibition of c-Met phosphorylation in human […] cells after 1 hr by western blotting; assay type: cell-based
[2] = Cmax in BALB/c mouse at 20 mg/kg, po; assay type: ADME, organism-based; parameters: dose 20 mg/kg, route oral; settings: in vivo
[3] = system: Mus musculus; experiment: Bioavailability in BALB/c mouse at 5 mg/kg, iv; assay type: ADME, organism-based; settings: in vivo
[4] = AUC (0 to infinity) in BALB/c mouse at 5 mg/kg, iv; assay type: ADME, organism-based; parameters: time infinity, dose 5 mg/kg, route intravenous; settings: plasma
[5] = Cmax in BALB/c mouse at 5 mg/kg, iv; assay type: ADME, organism-based; parameters: dose 5 mg/kg, route intravenous; settings: in vivo
[6] = molecular target: T1, ALK tyrosine kinase receptor (Homo sapiens, UniProt Q9UM73); assay type: cell-based
Target sequence in this assay (Q9UM73 19-1620 limits assumed): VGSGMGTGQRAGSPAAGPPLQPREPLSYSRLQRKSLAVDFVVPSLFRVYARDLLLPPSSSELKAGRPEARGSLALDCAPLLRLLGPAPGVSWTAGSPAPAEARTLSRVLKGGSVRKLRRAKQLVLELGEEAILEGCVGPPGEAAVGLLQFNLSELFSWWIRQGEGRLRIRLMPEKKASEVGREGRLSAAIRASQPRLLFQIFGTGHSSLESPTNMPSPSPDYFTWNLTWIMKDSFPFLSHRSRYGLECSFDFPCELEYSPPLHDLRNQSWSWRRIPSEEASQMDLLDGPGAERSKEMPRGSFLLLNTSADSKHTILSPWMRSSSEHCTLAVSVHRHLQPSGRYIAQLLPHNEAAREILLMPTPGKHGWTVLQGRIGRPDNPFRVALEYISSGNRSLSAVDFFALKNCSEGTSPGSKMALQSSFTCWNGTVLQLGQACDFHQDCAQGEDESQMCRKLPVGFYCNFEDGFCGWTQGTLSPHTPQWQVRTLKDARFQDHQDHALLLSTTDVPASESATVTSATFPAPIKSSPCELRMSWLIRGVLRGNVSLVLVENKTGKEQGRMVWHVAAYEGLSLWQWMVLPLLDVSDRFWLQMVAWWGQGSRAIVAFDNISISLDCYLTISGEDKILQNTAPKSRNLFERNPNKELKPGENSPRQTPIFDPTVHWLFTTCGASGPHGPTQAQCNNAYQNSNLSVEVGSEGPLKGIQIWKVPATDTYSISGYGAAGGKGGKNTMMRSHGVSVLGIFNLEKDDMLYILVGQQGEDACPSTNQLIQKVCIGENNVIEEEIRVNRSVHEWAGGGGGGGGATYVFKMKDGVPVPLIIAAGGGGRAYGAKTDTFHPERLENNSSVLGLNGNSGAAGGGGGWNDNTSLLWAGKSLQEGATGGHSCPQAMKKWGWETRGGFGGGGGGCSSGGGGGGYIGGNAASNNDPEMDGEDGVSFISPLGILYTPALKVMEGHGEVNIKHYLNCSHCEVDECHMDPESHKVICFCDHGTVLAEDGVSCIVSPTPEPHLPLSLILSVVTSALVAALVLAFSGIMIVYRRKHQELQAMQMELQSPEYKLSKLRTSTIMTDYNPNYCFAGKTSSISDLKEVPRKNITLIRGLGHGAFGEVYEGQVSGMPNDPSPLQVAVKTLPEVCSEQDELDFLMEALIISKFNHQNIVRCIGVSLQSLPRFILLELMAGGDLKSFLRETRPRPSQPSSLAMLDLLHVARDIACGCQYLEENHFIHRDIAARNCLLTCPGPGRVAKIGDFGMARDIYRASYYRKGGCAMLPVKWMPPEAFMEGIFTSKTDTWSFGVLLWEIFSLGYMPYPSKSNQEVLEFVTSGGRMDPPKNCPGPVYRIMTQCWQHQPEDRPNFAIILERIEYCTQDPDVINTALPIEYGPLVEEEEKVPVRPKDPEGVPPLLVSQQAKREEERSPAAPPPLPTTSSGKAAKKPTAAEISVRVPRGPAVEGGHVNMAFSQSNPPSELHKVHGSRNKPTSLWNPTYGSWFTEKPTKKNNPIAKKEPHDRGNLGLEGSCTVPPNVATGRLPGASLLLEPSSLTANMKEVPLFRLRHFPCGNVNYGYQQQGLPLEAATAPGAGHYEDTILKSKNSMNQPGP
Description: Inhibition of NPM-fused ALK phosphorylation (unknown origin) expressed in human karpas 299 cells after 90 mins by Sandwich-ELISA

[7] = molecular target: T1, ALK tyrosine kinase receptor; experiment: Inhibition of human ALK (unknown origin) using poly[Glu:Tyr] as substrate by nanoliter kinase assay
Target sequence in this assay (Q9UM73 whole entry): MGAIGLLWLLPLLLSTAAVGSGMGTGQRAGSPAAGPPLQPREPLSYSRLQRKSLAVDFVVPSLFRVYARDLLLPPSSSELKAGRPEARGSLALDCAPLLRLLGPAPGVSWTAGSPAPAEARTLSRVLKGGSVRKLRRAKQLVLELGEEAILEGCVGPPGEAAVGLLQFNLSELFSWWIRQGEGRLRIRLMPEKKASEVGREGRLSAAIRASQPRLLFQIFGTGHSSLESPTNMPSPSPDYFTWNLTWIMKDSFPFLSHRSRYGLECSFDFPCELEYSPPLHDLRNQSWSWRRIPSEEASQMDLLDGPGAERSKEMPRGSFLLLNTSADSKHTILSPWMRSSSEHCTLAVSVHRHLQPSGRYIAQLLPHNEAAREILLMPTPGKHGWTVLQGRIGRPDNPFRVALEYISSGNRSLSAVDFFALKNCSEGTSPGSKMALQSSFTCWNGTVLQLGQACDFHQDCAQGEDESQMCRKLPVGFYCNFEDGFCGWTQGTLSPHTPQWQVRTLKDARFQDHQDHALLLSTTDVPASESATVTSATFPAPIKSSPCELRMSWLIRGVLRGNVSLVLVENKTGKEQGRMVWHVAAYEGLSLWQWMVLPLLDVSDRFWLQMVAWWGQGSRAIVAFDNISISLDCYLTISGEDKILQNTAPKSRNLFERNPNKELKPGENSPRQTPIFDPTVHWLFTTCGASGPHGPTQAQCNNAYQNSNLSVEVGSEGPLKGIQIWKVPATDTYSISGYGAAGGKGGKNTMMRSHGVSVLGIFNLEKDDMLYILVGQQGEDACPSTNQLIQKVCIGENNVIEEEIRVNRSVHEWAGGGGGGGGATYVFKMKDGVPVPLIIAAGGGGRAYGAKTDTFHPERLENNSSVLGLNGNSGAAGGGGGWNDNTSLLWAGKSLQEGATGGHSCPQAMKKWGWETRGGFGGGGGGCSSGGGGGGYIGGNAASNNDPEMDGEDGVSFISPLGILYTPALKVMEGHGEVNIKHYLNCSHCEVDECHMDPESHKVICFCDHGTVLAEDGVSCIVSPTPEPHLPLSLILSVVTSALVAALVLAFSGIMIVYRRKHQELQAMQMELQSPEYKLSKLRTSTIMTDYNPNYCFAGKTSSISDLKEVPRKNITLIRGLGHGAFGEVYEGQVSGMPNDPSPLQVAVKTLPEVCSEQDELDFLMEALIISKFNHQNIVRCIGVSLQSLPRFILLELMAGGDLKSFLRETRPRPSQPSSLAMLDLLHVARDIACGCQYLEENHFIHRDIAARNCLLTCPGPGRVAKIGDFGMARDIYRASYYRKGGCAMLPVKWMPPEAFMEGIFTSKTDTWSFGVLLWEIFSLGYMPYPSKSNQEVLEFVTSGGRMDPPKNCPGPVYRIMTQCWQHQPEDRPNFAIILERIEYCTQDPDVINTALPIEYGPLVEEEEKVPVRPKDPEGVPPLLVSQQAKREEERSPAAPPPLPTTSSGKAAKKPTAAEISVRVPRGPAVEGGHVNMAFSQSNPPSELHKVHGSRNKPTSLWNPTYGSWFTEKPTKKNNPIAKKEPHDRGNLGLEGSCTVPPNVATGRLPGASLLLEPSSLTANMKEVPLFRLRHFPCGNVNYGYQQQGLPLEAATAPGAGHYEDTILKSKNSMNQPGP

[8] = system: Mus musculus; experiment: Toxicity in human GTL16 cells xenografted nu/nu mouse model assessed as change in body weight at 20 mg/kg, po qd for 14 days; assay type: organism-based; parameters: dose 20 mg/kg, route oral; settings: in vivo, 336 h
[9] = Oral bioavailability in BALB/c mouse at 20 mg/kg; assay type: ADME, organism-based; settings: in vivo
[10] = AUC (0 to infinity) in BALB/c mouse at 20 mg/kg, po; assay type: ADME, organism-based; parameters: time infinity, dose 20 mg/kg, route oral; settings: plasma
[11] = cells; settings: Homo sapiens, U-87 MG, 48 h
Description: Antiproliferative activity against human U87MG cells after 48 hrs by MTT assay

[12] = cells; settings: Homo sapiens, NCI-H441, 48 h
Description: Antiproliferative activity against human H441 cells after 48 hrs by MTT assay

[13] = system: NCI-H1993; experiment: cells; settings: Homo sapiens, NCI-H1993, 48 h
Description: Antiproliferative activity against human NCI-H1993 cells after 48 hrs by MTT assay

[14] = cells; settings: Homo sapiens, GTL 16, 48 h
Description: Antiproliferative activity against human GTL16 cells after 48 hrs by MTT assay

[15] = animal or person; settings: Homo sapiens, GTL 16, po, 336 h, read-out: TGI
Description: Antitumor activity against human GTL16 cells xenografted in nu/nu mouse assessed as tumor growth inhibition at 40 mg/kg, po qd for 14 days

[16] = animal or person; settings: Homo sapiens, GTL 16, po, 336 h, read-out: TGI; remark: listed apart in the source
Description: Antitumor activity against human GTL16 cells xenografted in nu/nu mouse assessed as tumor growth inhibition at 20 mg/kg, po qd for 14 days

Hepatocyte growth factor receptor, sequence (P08581 whole entry): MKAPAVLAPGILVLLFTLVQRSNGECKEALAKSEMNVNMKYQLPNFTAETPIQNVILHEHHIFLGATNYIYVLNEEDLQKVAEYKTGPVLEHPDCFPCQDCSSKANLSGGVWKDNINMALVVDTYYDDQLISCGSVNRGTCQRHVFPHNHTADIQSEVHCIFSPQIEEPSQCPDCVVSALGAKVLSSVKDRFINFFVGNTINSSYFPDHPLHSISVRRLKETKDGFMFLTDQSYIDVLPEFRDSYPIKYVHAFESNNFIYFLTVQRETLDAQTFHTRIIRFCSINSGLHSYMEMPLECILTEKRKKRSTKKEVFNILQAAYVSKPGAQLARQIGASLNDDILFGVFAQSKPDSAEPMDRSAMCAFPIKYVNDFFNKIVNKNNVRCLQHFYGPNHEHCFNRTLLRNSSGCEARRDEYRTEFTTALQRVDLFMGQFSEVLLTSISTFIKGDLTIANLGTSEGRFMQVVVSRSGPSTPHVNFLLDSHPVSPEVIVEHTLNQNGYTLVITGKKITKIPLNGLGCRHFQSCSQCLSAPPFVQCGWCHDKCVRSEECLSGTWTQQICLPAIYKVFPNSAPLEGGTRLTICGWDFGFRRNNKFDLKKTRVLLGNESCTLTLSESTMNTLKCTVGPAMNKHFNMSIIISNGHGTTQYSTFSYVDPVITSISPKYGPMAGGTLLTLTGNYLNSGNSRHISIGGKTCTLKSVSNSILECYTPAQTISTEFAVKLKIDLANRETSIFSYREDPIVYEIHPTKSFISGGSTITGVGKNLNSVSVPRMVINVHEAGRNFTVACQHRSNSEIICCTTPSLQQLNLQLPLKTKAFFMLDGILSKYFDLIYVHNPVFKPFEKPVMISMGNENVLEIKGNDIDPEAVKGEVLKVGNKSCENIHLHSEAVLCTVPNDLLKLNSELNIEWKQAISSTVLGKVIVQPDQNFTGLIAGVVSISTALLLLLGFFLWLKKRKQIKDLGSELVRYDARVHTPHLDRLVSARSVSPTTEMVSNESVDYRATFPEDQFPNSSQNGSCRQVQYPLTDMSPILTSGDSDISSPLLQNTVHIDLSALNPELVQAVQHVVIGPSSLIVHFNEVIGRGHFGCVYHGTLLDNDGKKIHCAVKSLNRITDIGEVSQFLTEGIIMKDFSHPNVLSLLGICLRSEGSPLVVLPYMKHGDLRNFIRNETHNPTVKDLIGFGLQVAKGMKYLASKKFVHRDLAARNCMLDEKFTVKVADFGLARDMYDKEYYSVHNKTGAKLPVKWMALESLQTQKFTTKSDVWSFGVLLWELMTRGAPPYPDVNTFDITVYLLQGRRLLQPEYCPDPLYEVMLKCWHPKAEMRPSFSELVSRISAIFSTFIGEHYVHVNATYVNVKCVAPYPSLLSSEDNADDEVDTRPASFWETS

| Structure (SMILES) | IC50 [1] | Cmax [2] | F [3] | AUC(0-inf) [4] | Cmax [5] | IC50 [6] | IC50 [7] | Activity [8] | bioavailability [9] | AUC(0-inf) [10] | IC50 [11] | IC50 [12] | IC50 [13] | IC50 [14] | inhibition in vivo at 40 mg/kg [15] | inhibition in vivo at 20 mg/kg [16] |
| --- | --- | --- | --- | --- | --- | --- | --- | --- | --- | --- | --- | --- | --- | --- | --- | --- |
| CN1CCC2(CC1)C(=O)Nc1ccc(-c3cnc(N)c(OCc4c(Cl)ccc(F)c4Cl)c3)cc12 | > 10000 nM |  |  |  |  |  |  |  |  |  |  |  |  |  |  |  |
| C[C@@H](Oc1cc(-c2ccc3c(c2)NC(=O)C32CCN(C)CC2)cnc1N)c1c(Cl)ccc(F)c1Cl |  | 1450 nM | 100% | 1230 ng·h/mL | 1360 nM | 39 nM | < 0.5 nM | Non-toxic | 48% | 2350 ng·h/mL | > 10000 nM | 2820 nM | 1580 nM | 20 nM | 87% | 52% |
